The record followed here is patent publication US20200164047A1, “THERAPY AND DIAGNOSIS OF DISEASE CHARACTERIZED BY ALTERATIONS IN THE DNA DAMAGE RESPONSE” (UNIVERSITÀ DEGLI STUDI DI MILANO, priority 2017, published 2020).

Test [1] has as its system Bx-PC3 pancreatic cancer cells. It counts as cell-based. The settings on record: metformin in combination with low glucose, 24, 48 and 72 hrs.
In test [2] the test system is yeast cells undergoing chronological aging. The test can be described thus: Chronological lifespan (CLS) with UV: DDR, NER, viability. Type of test: cell-based, S. cerevisiae. The settings on record: UV 40 J/m^2; rapamycin 2 ng/ml or metformin 80 mM. The method, then: Both drugs were supplemented at the initial overnight culture stage (Day 0), prior to cells entering stationary phase. In experiments including rapamycin-treated cultures, DMSO (0.04%) was used in the untreated cultures. For each chronological aging experiment, cells were set up in synthetic complete medium (SDC) and allowed to grow overnight at 28° C. to reach exponentially growing conditions the next day (day 1) until the end of kinetics (day 10/11 for DDR and NER analysis, day 21-28 for viability). At each examined day, small aliquots of cells were removed, exposed to 40 J/m^2 and further incubated in their exhausted medium. Samples were taken at untreated (prior to UV), 0 and 2 hours (for protein extraction) or 0, 6 and 24 hours (for genomic DNA extraction) after UV treatment.
PP2A targets: Gln3-myc, Npr1-myc, Nnk1-myc were all separated on NuPage precast 3-8% SDS gels. PonceauS staining was used as a loading control.
Cells were fixed in one volume of ice-cold 100% ethanol and incubated on ice for 5′. Genomic DNAs were then prepared following standard procedure. Equal amounts of DNA were loaded on 0.8% agarose gel, transferred by Southern blot onto nitrocellulose membrane (Amersham Protran 0.45μ) and cross-linked by baking 1 hour at 80° C.
Lifespan Viability Assays were Carried as Follows: Aliquots of Cells were Removed Throughout the CLS kinetics, serially diluted and spotted on YPD plates. The plates were then exposed to 40 J/m^2 (or 20 J/m^2 in some cases), incubated at 25° C. and scanned after 3 days. In FIGS. 33, 34 and 36 individual spot assay rows were cut out for space reasons, but the compared strains were always from the same plates.

In test [3] the test system is PDX models (patient-derived xenografts) from melanoma patients. Description: In vivo growth of melanoma PDX models. Also on record: species or system mice. The settings on record: metformin-intermittent fasting combination. The procedure:
CD1 nude mice received single subcutaneous flank injections of 5×10^6 HCT-116 cells or 1×10^5 patient-derived melanoma cells suspended in 200 μl saline. After the tumors were established, mice were randomized in different groups. Mice were kept on the feeding/fasting protocols described. […] Tumor growth was monitored by bi-dimensional measurements using a caliper. Experiments have been done in accordance with the Italian Laws (D.L.vo 116/92 and following additions), which enforces EU 86/609 Directive (Council Directive 86/609/EEC of 24 Nov. 1986 on the approximation of laws, regulations and administrative provisions of the Member States regarding the protection of animals used for experimental and other scientific purposes). Mice have been housed accordingly to the guidelines set out in Commission Recommendation 2007/526/EC—Jun. 18, 2007 on guidelines for the accommodation and care of animals used for experimental and other scientific purposes. Note that nude mice show a strain-specific decline in glucose levels upon fasting, of a higher degree as compared to other commonly used mouse strains (C57B6).

In test [4] the test system is cancer cells. Description: Lactate production and glucose consumption of cancer cells. It counts as cell-based. The settings on record: metformin treatment. The procedure:
(§1) FIG. 20. […] (F, G) Quantification of oxygen consumption rate normalized by cell numbers of cells cultured in DMEM medium containing the indicated concentrations of glucose for 12 hours (F) or in DMEM medium containing with 2.5 mM glucose for the indicated time points (G).
Lactate production was measured using Lactate Assay Kit (Sigma Aldrich) according to manufacturer's instructions.

In test [5] the test system is HCT116 xenograft tumors. Description: In vivo growth of HCT116 xenograft tumors. Also on record: species or system mice. An excerpt: FIG. 13. […] Error bars indicate SEM.
(§2) FIG. 31. […] (B) Immunoblotting analysis of total cell lysates used for immunoprecipitation in (A).

For test [6], the system named is HCT116 and HeLa cells. The settings on record: low glucose conditions plus metformin, 24 h. The method, then:
FIG. 14. […] (A) Images of HCT116 and HeLa cells cultured for 24 hours in either nutrient-rich DMEM (containing 10% FBS and 10 mM glucose), DMEM containing 2.5 mM glucose (glucose deprivation), DMEM with 0.1% serum (serum deprivation) or DMEM with no glutamine, no methionine and no cysteine (amino acids deprivation). Media were replenished every 6 hours. (B) Quantification of cell death of HCT116 and HeLa cells cultured as in A as measured by propidium iodide uptake using flow cytometry. […] Media were replenished every 6 hours.
as §2
Cells were harvested by trypsinization, washed in PBS (pH 7.2), and then stained with propidium iodide (10 mg/ml) added immediately prior to analysis. Cell fluorescence was then measured on a flow cytometer (FACSCalibur; Becton Dickinson, CA) and analyzed using CellQuest software.

The test system of test [7] is BON-1 neuroendocrine tumor cells. Description: BON-1 cell viability. Type of test: cell-based. The settings on record: metformin with low (2.5 mM) glucose. The source says:
FIG. 57. […] The assay as performed as described in the other examples.

The test system of test [8] is cancer cell lines representative of different cancer types. The test can be described thus: Proliferation of cancer cell lines by CellTiter-Glo assay. The settings on record: nutrient-rich conditions. It counts as cell-based. The method, then: as §1
CellTiter Glo Luminescent Cell Viability Assay (Promega) was used according to manufacturer's protocol. Briefly, cells were plated in 96 well plates, treated 24h later with different doses of drugs in total volume of 100 μl. 24h later, 100 μl of CellTiter Glo reagent was added to the cells and incubated for 15 min at 37° C. and luminescence was measured using a Promega plate reader.
(In ATP-based viability assays light output follows the ATP content of the culture.)

Test [9] is described as follows: Blood glucose levels in tumor-bearing mice. The settings on record: metformin 200 mg/kg oral gavage.
Excerpt: (B-D) The levels of blood glucose measured at the end of each feeding/fasting cycle in different experimental groups. […] Error bars indicate SEM. (n=5 per group).
To this end, mice bearing HCT116 xenografts were distributed into five groups as schematized in FIG. 13; the first two groups were kept on ad libitum feeding while the three other groups were subjected to 24-hour cycles of feeding-fasting. Fasting in those groups was achieved by complete withdrawal of food while allowing free access to water. […] The first of those three groups (Fed/Fast group) received vehicle every 48h to assess the effect of fasting-feeding cycles alone on tumor growth. […] Tumor growth was monitored in all groups.

In the case of `CN(C)C(=N)NC(=N)N.Cl` [metformin], the “sensitization by RAD51 knockdown” value in test [1] is reported as “dramatically sensitizes”. In addition, the “DDR, NER and lifespan during chronological aging” value in test [2] was “improve DDR and promote longevity but not NER”. Besides, in test [3], the “tumor growth in PDX models” value was “also works on PDX models of tumor”. The “glucose consumption and lactate production” value in [4] was “dose and time-dependent increase in glucose consumption and lactate production”. For the same compound, the tumor growth result in [5] (metformin 200 mg/kg every 48 h during fasting cycles (Met/Fast)) was “dramatically impeded”; in test [5] (metformin alone, ad libitum feeding, 200 mg/kg oral gavage), “did not exert any significant tumor restraining effect”. For the same compound, the cell death result in [6] is on record as “marked cell death”. Also, the cell viability result in test [7] is on record as “reduction in cell viability”. Also, the anti-proliferative effect entry in test [8] is “only weak anti-proliferative effects”. For the same compound, the blood glucose levels entry in test [9] was “reduced blood glucose levels but to a much less extent than that induced by fasting”.
